Data set [1] relates to HG-3 cells.
Data set [2] concerns PGA-1 cells. The note with it: 10 µM.
The test system of data set [3] is HG-3 cells. The experiment in a line: alamarBlue cell viability assay. The note with it: for IC50: read-out: HG-3 IC50. Background: Alamar Blue is a resazurin reagent that responds to reducing activity.
Data set [4] relates to PGA-1 cells. The experiment in a line: alamarBlue cell viability assay. The note with it: for IC50: read-out: PGA-1 IC50.
In data set [5] the test system is HG-3 and PGA-1 cell lines. The experiment in a line: alamarBlue cell viability assay, mean of both CLL cell lines. The format is cell-based, human. The note with it: mean of HG-3 and PGA-1.
Data set [6] in a line: HPLC stability study in phosphate buffers. The format is physicochemical. The note with it: for Half-life pH 4 / % remaining 24 h pH 4: pH 4 buffer; for Half-life pH 4 / % remaining 24 h pH 4 / Half-life pH 7.4 / % remaining 24 h pH 7.4 / Half-life pH 9 / % remaining 24 h pH 9: 37 °C; for % remaining 24 h pH 4 / % remaining 24 h pH 7.4 / % remaining 24 h pH 9: HPLC; for Half-life pH 7.4 / % remaining 24 h pH 7.4: pH 7.4 buffer; for Half-life pH 9 / % remaining 24 h pH 9: pH 9 buffer. The procedure: A preliminary stability study was carried out on selected chalcones, maleic anhydride and maleimide adducts at acidic, neutral and basic conditions (pH 4, 7.4 and 9) using HPLC to determine suitability for further preclinical investigations. […] A possible degradation route for the maleimide 23n could be through the hydrolysis of the cyclic imide of the maleimide ring, leading to the resultant amic acid product.
All samples were analyzed using acetonitrile–water (80:20%, 70:30%, 60:40% isocratic) as the mobile phase over 10 min and a flow rate of 1 mL/min. Stock solutions were prepared by dissolving 5 mg of compounds in a mobile phase ([(acetonitrile (80%): water (20%)], 10 mL). Anhydride 22h was not detected at its retention time of 5.2 min at pH 9.0. The data presented represent the results of single experiments.
The HPLC stability studies for compounds 21a, 21i, 22h, 23a, 23g, 23n, 24a, 24h, 26a and 26n were performed using a Symmetry® column (C18, 5 µm, 4.6 × 150 mm), a Waters 2487 Dual Wavelength Absorbance detector, and an HPLC pump: Waters 1525 binary and Autosampler; Waters 717 plus (Waters Corporation, Milford, MA, USA), mobile phase [(acetonitrile (80%) and water (20%)] with a typical run time of 10 min and a flow rate of 1 mL/min with detection at 254 nm. The selected compounds 21a, 21i, 22h, 23a, 23g, 23n, 24a, 24h, 26a and 26n (5 mg) in the mobile phase (10 mL) provided the stock solution for the analysis. The phosphate buffers were prepared at pH values of 4, 7.4 and 9, as described in the British Pharmacopoeia monograph 2019. The stock solution (30 µL) was added to the appropriate buffer (1 mL) and retained at 37 °C. Samples were then analyzed over the following 24-h period at selected time intervals (t = 0 min, 5 min, 30 min, 60 min, 90 min, 120 min and 24 h).

Values joined by “and” are separate entries in the source; they are usually repeats but may differ in a detail not shown here. Equal values may be shown once. Read-outs that look alike come from different tables or passages of the source.

With `O=C(/C=C/C12c3ccccc3C(c3ccccc31)C1C(=O)N(c3ccc(C(=O)c4ccccc4)cc3)C(=O)C12)c1ccncc1` (centres unmarked) [Compound 26m, (E)-13-(4-Benzoylphenyl)-9-(3-oxo-3-(pyridin-4-yl)prop-1-en-1-yl)-9,10-dihydro-9,10-[3,4]epipyrroloanthracene-12,14-dione], the figures for the cell viability in data set [1] (10 µM) and in data set [2] were 27% and 17%, respectively. The “decrease in cell viability compared to 26f” value (from here on “decrease in cell viability”) in data set [3] (HG-3, 1 µM) is given as 64%; in data set [3] (HG-3, 10 µM), 59%; in data set [4] (PGA-1, 1 µM), 64%.
For the molecule `O=C(C=CC12c3ccccc3C(c3ccccc31)C1C(=O)N(c3ccc(Cl)cc3)C(=O)C12)c1ccc(I)cc1` (centres unmarked) [Compound 25g, (E)-13-(4-Chlorophenyl)-9-(3-(4-iodophenyl)-3-oxoprop-1-en-1-yl)-9,10-dihydro-9,10-[3,4]epipyrroloanthracene-12,14-dione], the cell viability in data set [2] is 33%.
On to `O=C(C=CC12c3ccccc3C(c3ccccc31)C1C(=O)N(c3ccccc3)C(=O)C12)c1ccc([N+](=O)[O-])cc1` (centres unmarked) [Compound 24b, 9-(E)-3-(4-Nitrophenyl)-3-oxoprop-1-en-1-yl)-13-phenyl-9,10-dihydro-9,10-[3,4]epipyrroloanthracene-12,14-dione], for which the values for the cell viability in data set [1] (10 µM) and in data set [2] were 10% and 22%, respectively.
Turning to `O=C(/C=C/C12c3ccccc3C(c3ccccc31)C1C(=O)NC(=O)C12)c1ccc(I)cc1` (centres unmarked) [Compound 23g], the IC50 in data set [5] was 3.62 µM. Also, in data set [6] (over the pH range studied (pH 4, 7.4 and 9)), the “recovery at 24 h” value is < 50%. In data set [6], the “Half-life pH 4” value is given as 11.3 h, the “% remaining 24 h pH 4” value is given as 7.98%, the “Half-life pH 7.4” value amounted to 8.9 h and the “% remaining 24 h pH 7.4” value came to 11.02%. Further, in data set [6], the “Half-life pH 9” value worked out at 5.5 h and the “% remaining 24 h pH 9” value is 10.50%. The cell viability in data set [1] (10 µM) came out at 0%. Also, in data set [2], the cell viability amounted to 2%. Moreover, the 50% inhibitory concentration (IC50) in data set [3] (HG-3, 24 h) came to 4.47 µM. Also, in data set [4] (PGA-1, 24 h), the IC50 is 2.77 µM.
As to `O=C(C=CC12c3ccccc3C(c3ccccc31)C1C(=O)N(c3ccc(Cl)cc3)C(=O)C12)c1ccco1` (centres unmarked) [Compound 25o, (E)-13-(4-Chlorophenyl)-9-(3-(furan-2-yl)-3-oxoprop-1-en-1-yl)-9,10-dihydro-9,10-[3,4]epipyrroloanthracene-12,14-dione], the cell viability in data set [1] (10 µM) is 5%; in data set [2], 14%.
Consider “(E)-13-(4-Chlorophenyl)-9-(3-oxo-3-(pyridin-4-yl)prop-1-en-1-yl)-9,10-dihydro-9,10-[3,4]epipyrroloanthracene-12,14-dione [Compound 25m]”, for which the cell viability in data set [1] (10 µM) is 8%; in data set [2] it was 28%.
As for `O=C(/C=C/C12c3ccccc3C(c3ccccc31)C1C(=O)NC(=O)C12)c1ccc2ccccc2c1` (centres unmarked) [Compound 23p], the half-inhibitory concentration (IC50) in data set [5] is 1.36 µM; in data set [3] (HG-3, 24 h), 1.41 µM; in data set [4] (PGA-1, 24 h), 1.3 µM. Further, the cell viability in data set [1] (1 µM) came out at 46%; in data set [1] (10 µM), 0%; in data set [2], 0%.
With `O=C(c1ccccc1)c1ccc(N2C(=O)C3C4c5ccccc5C(C=CC(=O)c5ccco5)(c5ccccc54)C3C2=O)cc1` (centres unmarked) [Compound 26o, (E)-13-(4-Benzoylphenyl)-9-(3-(furan-2-yl)-3-oxoprop-1-en-1-yl)-9,10-dihydro-9,10-[3,4]epipyrroloanthracene-12,14-dione], the cell viability worked out at 15% in data set [1] (10 µM) and 9% in data set [2].
For the molecule `COc1ccc(C(=O)/C=C/C23c4ccccc4C(c4ccccc42)C2C(=O)NC(=O)C23)cc1` (centres unmarked) [Compound 23i, (E)-9-(3-(4-Methoxyphenyl)-3-oxoprop-1-en-1-yl)-9,10-dihydro-9,10-[3,4]epipyrroloanthracene-12,14-dione], the IC50 came to 11.4 µM in data set [5]; 10.3 µM in data set [3] (HG-3, 24 h); 12.6 µM in data set [4] (PGA-1, 24 h).
In data set [2], `O=C(C=CC12c3ccccc3C(c3ccccc31)C1C(=O)N(c3ccc(Cl)cc3)C(=O)C12)c1ccc(Br)cc1` (centres unmarked) [Compound 25a, (E)-9-(3-(4-Bromophenyl)-3-oxoprop-1-en-1-yl)-13-(4-chlorophenyl)-9,10-dihydro-9,10-[3,4]epipyrroloanthracene-12,14-dione] gave a cell viability of 33%.
As to `Nc1nc(F)nc2c1ncn2[C@@H]1O[C@H](CO)[C@@H](O)[C@@H]1O` [Fludarabine, fludarabine, reference compound], the concentration for half-maximal inhibition (IC50) in data set [5] (Homo sapiens, CLL cell) is 30.1 µM; in data set [3] (Homo sapiens, HG-3, 24 h), 28.1 µM; in data set [4] (Homo sapiens, 24 h), 32 µM.
In the case of `O=C(/C=C/C12c3ccccc3C(c3ccccc31)C1C(=O)N(c3ccc(C(=O)c4ccccc4)cc3)C(=O)C12)c1ccc(Br)cc1` (centres unmarked) [Compound 26a, (E)-13-(4-Benzoylphenyl)-9-(3-(4-bromophenyl)-3-oxoprop-1-en-1-yl)-9,10-dihydro-9,10-[3,4]epipyrroloanthracene-12,14-dione], in data set [6], the “Half-life pH 4” value is recorded as > 24 h; the “% remaining 24 h pH 4” value is 64% and 63.95%; the “Half-life pH 7.4” value is > 24 h; the “% remaining 24 h pH 7.4” value was 61% and 61.03%. Moreover, in data set [6], the “Half-life pH 9” value is > 24 h and the “% remaining 24 h pH 9” value is 66%. Moreover, the cell viability in data set [1] (1 µM) worked out at 55%. Also, the cell viability in data set [1] (10 µM) worked out at 31%. The molecule also displayed a cell viability in data set [2] of 29%. The “decrease in cell viability” value in data set [3] (HG-3, 1 µM) is on record as 64%. Besides, the “decrease in cell viability” value in data set [3] (HG-3, 10 µM) came out at 29%. For the same molecule, the “decrease in cell viability” value in data set [4] (PGA-1, 1 µM) turned out to be 70%. The “decrease in cell viability” value in data set [4] (PGA-1, 10 µM) came out at 20%.
Consider `O=C(C=CC12c3ccccc3C(c3ccccc31)C1C(=O)N(c3ccccc3)C(=O)C12)c1ccco1` (centres unmarked) [Compound 24o, 9-(E)-3-(Furan-2-yl)-3-oxoprop-1-en-1-yl)-13-phenyl-9,10-dihydro-9,10-[3,4]epipyrroloanthracene-12,14-dione], for which the cell viability in data set [1] (10 µM) turned out to be 3%; in data set [2], 9%.
The corresponding values for “(E)-13-(4-Chlorophenyl)-9-(3-(4-nitrophenyl)-3-oxoprop-1-en-1-yl)-9,10-dihydro-9,10-[3,4]epipyrroloanthracene-12,14-dione [Compound 25b]” are 35% and 34%.
For `O=C(C=CC12c3ccccc3C(c3ccccc31)C1C(=O)N(c3ccc(Cl)cc3)C(=O)C12)c1ccc(Cl)cc1` (centres unmarked) [Compound 25l, (E)-13-(4-Chlorophenyl)-9-(3-(4-chlorophenyl)-3-oxoprop-1-en-1-yl)-9,10-dihydro-9,10-[3,4]epipyrroloanthracene-12,14-dione], the cell viability in data set [2] stood at 24%.
Turning to `N#CC1CC2c3ccccc3C1(/C=C/[N+](=O)[O-])c1ccccc12` (centres unmarked) [Compound 20e], the IC50 in data set [5] (Homo sapiens, CLL cell) worked out at 1.4 µM; in data set [3] (Homo sapiens, HG-3, 24 h), 1.6 µM; in data set [4] (Homo sapiens, 24 h) it was 1.1 µM. Further, the viability at 10 µM in data set [3] (Homo sapiens, HG-3, 24 h, read-out: cell viability, HG-3, 10 µM, 24 h, vehicle = 100%) is 14 to 43%; in data set [4] (Homo sapiens, 24 h, read-out: cell viability), 3%.

As usually defined, the cell viability is a read-out of living cells in per cent, often relative to untreated cells. Low values mean a greater loss of cells, high ones better survival. The term IC50 denotes the concentration that gives 50% inhibition. A word on the viability: it is the share of living cells, or the viability signal relative to a control.

The record behind these values is PMC11359702, “Synthesis and Biochemical Evaluation of Ethanoanthracenes and Related Compounds: Antiproliferative and Pro-Apoptotic Effects in Chronic Lymphocytic Leukemia (CLL)” (Pharmaceuticals, 2024).
